# From PubChem BioAssay (NCI)
#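 At the GI50, growth is halved. TGI: concentration producing complete growth inhibition.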
# Key:
# Experiment in all cases: growth of human tumour cells (NCI), 384-well format
# RXF 393 renal = tested on: RXF 393 renal
# HCT-15 colon = tested on: HCT-15 colon
# SN12C renal = tested on: SN12C renal
# OVCAR-5 ovarian = tested on: OVCAR-5 ovarian
# T-47D breast = tested on: T-47D breast
# KM12 colon = tested on: KM12 colon
# OVCAR-8 ovarian = tested on: OVCAR-8 ovarian
# NCI-H226 lung = tested on: NCI-H226 lung
# COLO 205 colon = tested on: COLO 205 colon
# MALME-3M melanoma = tested on: MALME-3M melanoma
# NCI-H23 lung = tested on: NCI-H23 lung
# K-562 leukemia = tested on: K-562 leukemia
# SK-MEL-28 melanoma = tested on: SK-MEL-28 melanoma
# SR leukemia = tested on: SR leukemia
# PC-3 prostate = tested on: PC-3 prostate
# OVCAR-4 ovarian = tested on: OVCAR-4 ovarian
# NCI-H322M lung = tested on: NCI-H322M lung
# NCI-H522 lung = tested on: NCI-H522 lung
# UO-31 renal = tested on: UO-31 renal
# A549 NSCLC = tested on: A549 NSCLC
# CCRF-CEM leukemia = tested on: CCRF-CEM leukemia
# HT29 colon = tested on: HT29 colon
# 786-0 renal = tested on: 786-0 renal
# UACC-257 melanoma = tested on: UACC-257 melanoma
# SK-MEL-2 melanoma = tested on: SK-MEL-2 melanoma
# IGROV1 ovarian = tested on: IGROV1 ovarian
# UACC-62 melanoma = tested on: UACC-62 melanoma
# MDA-MB-468 breast = tested on: MDA-MB-468 breast
# HCT-116 colon = tested on: HCT-116 colon
# CAKI-1 renal = tested on: CAKI-1 renal
# HL-60(TB) leukemia = tested on: HL-60(TB) leukemia
# U251 glioblastoma = tested on: U251 glioblastoma
# A498 renal = tested on: A498 renal
# NCI/ADR-RES ovarian = tested on: NCI/ADR-RES ovarian
# MCF7 breast = tested on: MCF7 breast
# SNB-19 CNS = tested on: SNB-19 CNS
# SK-OV-3 ovarian = tested on: SK-OV-3 ovarian
# DU-145 prostate = tested on: DU-145 prostate
# HOP-92 NSCLC = tested on: HOP-92 NSCLC
# SF-539 CNS = tested on: SF-539 CNS
# RPMI-8226 leukemia = tested on: RPMI-8226 leukemia
# MOLT-4 leukemia = tested on: MOLT-4 leukemia
# BT-549 breast = tested on: BT-549 breast
# NCI-H460 NSCLC = tested on: NCI-H460 NSCLC
# M14 melanoma = tested on: M14 melanoma
# LOX IMVI melanoma = tested on: LOX IMVI melanoma
# HOP-62 NSCLC = tested on: HOP-62 NSCLC
# OVCAR-3 ovarian = tested on: OVCAR-3 ovarian
# TK-10 renal = tested on: TK-10 renal
# ACHN renal = tested on: ACHN renal
# SW-620 colon = tested on: SW-620 colon
# HCC-2998 colon = tested on: HCC-2998 colon
# SF-295 CNS = tested on: SF-295 CNS
# MDA-MB-231 breast = tested on: MDA-MB-231 breast
# SK-MEL-5 melanoma = tested on: SK-MEL-5 melanoma
# MDA-MB-435 melanoma = tested on: MDA-MB-435 melanoma
# SF-268 CNS = tested on: SF-268 CNS
compound,measurement,setting,value
C#CCN(c1ccc(C(=O)N[C@@H](CCC(=O)N[C@H](CCC(=O)O)C(=O)O)C(=O)O)cc1)C1CCc2cc3nc(CO)[nH]c(=O)c3cc21 (some centres undefined),GI50,RXF 393 renal,8.09 µM
same,TGI,RXF 393 renal,71.9 µM
same,GI50,HCT-15 colon,5.2 µM
same,TGI,HCT-15 colon,> 100 µM
same,GI50,SN12C renal,3.75 µM
same,TGI,SN12C renal,46.9 µM
same,GI50,OVCAR-5 ovarian,> 100 µM
same,TGI,OVCAR-5 ovarian,> 100 µM
same,GI50,T-47D breast,> 100 µM
same,TGI,T-47D breast,> 100 µM
same,GI50,KM12 colon,> 100 µM
same,TGI,KM12 colon,> 100 µM
same,GI50,OVCAR-8 ovarian,4.54 µM
same,TGI,OVCAR-8 ovarian,> 100 µM
same,GI50,NCI-H226 lung,35.4 µM
same,TGI,NCI-H226 lung,> 100 µM
same,GI50,COLO 205 colon,7.84 µM
same,TGI,COLO 205 colon,> 100 µM
same,GI50,MALME-3M melanoma,> 100 µM
same,TGI,MALME-3M melanoma,> 100 µM
same,GI50,NCI-H23 lung,21.9 µM
same,TGI,NCI-H23 lung,57.3 µM
same,GI50,K-562 leukemia,7.67 µM
same,TGI,K-562 leukemia,> 100 µM
same,GI50,SK-MEL-28 melanoma,5.13 µM
same,TGI,SK-MEL-28 melanoma,> 100 µM
same,GI50,SR leukemia,1.9 µM
same,TGI,SR leukemia,3.38 µM
same,GI50,PC-3 prostate,9.44 µM
same,TGI,PC-3 prostate,> 100 µM
same,GI50,OVCAR-4 ovarian,> 100 µM
same,TGI,OVCAR-4 ovarian,> 100 µM
same,GI50,NCI-H322M lung,> 100 µM
same,TGI,NCI-H322M lung,> 100 µM
same,GI50,NCI-H522 lung,3.04 µM
same,TGI,NCI-H522 lung,7.83 µM
same,GI50,UO-31 renal,4.46 µM
same,TGI,UO-31 renal,62.4 µM
same,GI50,A549 NSCLC,5.94 µM
same,TGI,A549 NSCLC,> 100 µM
same,GI50,CCRF-CEM leukemia,1.97 µM
same,TGI,CCRF-CEM leukemia,4.68 µM
same,GI50,HT29 colon,5.23 µM
same,TGI,HT29 colon,> 100 µM
same,GI50,786-0 renal,3.69 µM
same,TGI,786-0 renal,31.1 µM
same,GI50,UACC-257 melanoma,> 100 µM
same,TGI,UACC-257 melanoma,> 100 µM
same,GI50,SK-MEL-2 melanoma,99.9 µM
same,TGI,SK-MEL-2 melanoma,> 100 µM
same,GI50,IGROV1 ovarian,60.3 µM
same,TGI,IGROV1 ovarian,> 100 µM
same,GI50,UACC-62 melanoma,64.6 µM
same,TGI,UACC-62 melanoma,> 100 µM
same,GI50,MDA-MB-468 breast,3.72 µM
same,TGI,MDA-MB-468 breast,8.76 µM
same,GI50,HCT-116 colon,4.57 µM
same,TGI,HCT-116 colon,> 100 µM
same,GI50,CAKI-1 renal,8.9 µM
same,TGI,CAKI-1 renal,> 100 µM
same,GI50,HL-60(TB) leukemia,3.02 µM
same,TGI,HL-60(TB) leukemia,7.56 µM
same,GI50,U251 glioblastoma,68.9 µM
same,TGI,U251 glioblastoma,> 100 µM
same,GI50,A498 renal,5.06 µM
same,TGI,A498 renal,> 100 µM
same,GI50,NCI/ADR-RES ovarian,3.18 µM
same,TGI,NCI/ADR-RES ovarian,8.45 µM
same,GI50,MCF7 breast,0.8 µM
same,TGI,MCF7 breast,> 100 µM
same,GI50,SNB-19 CNS,5.96 µM
same,TGI,SNB-19 CNS,> 100 µM
same,GI50,SK-OV-3 ovarian,43.2 µM
same,TGI,SK-OV-3 ovarian,> 100 µM
same,GI50,DU-145 prostate,3.49 µM
same,TGI,DU-145 prostate,20.3 µM
same,GI50,HOP-92 NSCLC,13.3 µM
same,TGI,HOP-92 NSCLC,> 100 µM
same,GI50,SF-539 CNS,4.67 µM
same,TGI,SF-539 CNS,> 100 µM
same,GI50,RPMI-8226 leukemia,2 µM
same,TGI,RPMI-8226 leukemia,4.03 µM
same,GI50,MOLT-4 leukemia,2.67 µM
same,TGI,MOLT-4 leukemia,5.52 µM
same,GI50,BT-549 breast,6.68 µM
same,TGI,BT-549 breast,> 100 µM
same,GI50,NCI-H460 NSCLC,5.02 µM
same,TGI,NCI-H460 NSCLC,> 100 µM
same,GI50,M14 melanoma,8.69 µM
same,TGI,M14 melanoma,> 100 µM
same,GI50,LOX IMVI melanoma,5.03 µM
same,TGI,LOX IMVI melanoma,> 100 µM
same,GI50,HOP-62 NSCLC,10.5 µM
same,TGI,HOP-62 NSCLC,45.8 µM
same,GI50,OVCAR-3 ovarian,9.01 µM
same,TGI,OVCAR-3 ovarian,> 100 µM
same,GI50,TK-10 renal,6.69 µM
same,TGI,TK-10 renal,> 100 µM
same,GI50,ACHN renal,4.25 µM
same,TGI,ACHN renal,> 100 µM
same,GI50,SW-620 colon,9 µM
same,TGI,SW-620 colon,> 100 µM
same,GI50,HCC-2998 colon,0.386 µM
same,TGI,HCC-2998 colon,3.96 µM
same,GI50,SF-295 CNS,2.76 µM
same,TGI,SF-295 CNS,7 µM
same,GI50,MDA-MB-231 breast,> 100 µM
same,TGI,MDA-MB-231 breast,> 100 µM
same,GI50,SK-MEL-5 melanoma,11.6 µM
same,TGI,SK-MEL-5 melanoma,> 100 µM
same,GI50,MDA-MB-435 melanoma,> 100 µM
same,TGI,MDA-MB-435 melanoma,> 100 µM
same,GI50,SF-268 CNS,4.09 µM
same,TGI,SF-268 CNS,27.5 µM
